From PMC7256776, “Pharmacokinetic Comparisons of Eight Active Components from Raw Farfarae Flos and Honey-Processed Farfarae Flos after Oral Administration in Rats by UHPLC-MS/MS Approaches” (Journal of Analytical Methods in Chemistry, 2020)
Read-outs that look alike come from different tables or passages of the source.

Tests used:
[1] = Pharmacokinetic study in rats after oral administration of R-FF or H-FF extract (UHPLC-MS/MS of serum); assay type: in vivo, SD rats; conditions: for eliminate rate (judged from t1/2 and MRT values): R-FF group; for double peak phenomena in serum concentration-time curve: both R-FF and H-FF, Figure 3; for AUC(0-inf) / AUC(0-t) / Cmax / Tmax / half-life / MRT last: male, SD, rat, serum, po, 140 g/kg; for AUC(0-inf) / AUC(0-t) / Cmax / Tmax / half-life / MRT last / t 1/2 / C max / MRT0–t / T max: mean ± SD; for AUC(0-inf) / AUC(0-t) / Cmax / Tmax / half-life / t 1/2 / C max / MRT0–t / T max: n = 6; for MRT last: n = 6, read-out: MRT0–t; for change of T1/2 in H-FF group compared to R-FF group / change of MRT0–t in H-FF group compared to R-FF group: oral, H-FF vs R-FF
Experimental: MS analysis was performed on a TSQ Quantis™ triple quadrupole mass spectrometer (Thermo Scientific™, Vanquish™, (Waltham, MA, USA)) equipped with an autosampler. Chromatographic separation was performed on a Thermo Hypersil GOLD C18 column (100 mm × 2.1 mm, 1.9 µm particles). The column temperature was maintained at 30°C. Through the Thermo Scientific™, TraceFinder™ software was acquired and processed. The mobile phase was composed of acetonitrile (A) and water (both containing 0.3% formic acid) (B) with a gradient elution program (0–5 min:10–19% acetonitrile, 5–8 min:19–25% acetonitrile, 8–28 min:25%–100% acetonitrile, 28–32 min: 100%–10%, and 32–34 min: 10%–10%). The system was re-equilibrated in the initial mobile phase 4.0 min before the next injection. The flow rate was set at 0.3 mL/min, and the injection volume was set as 2 μL.
The analytes were detected on a TSQ Quantis triple quadrupole mass spectrometer by selected reaction monitoring (SRM) equipped with a heated electrospray ionization source operated in negative ion modes. The parameters were set as follows: the sheath gas and the aux gas were set at 30 Arb and 10 Arb, respectively; the ion transfer tube temperature was maintained at 325°C; and the vaporizer temperature was set to 350°C.
5 μL of IS solution containing chloramphenicol 100 ng/ml and 795 μL of acetonitrile were added to a 100 μL drug serum sample for sedimentation of proteins. Subsequently, the 1.5 mL centrifuge tube containing mixture was vortexed for 5 min. After that, the mixture was centrifuged at 12,000 rpm for 20 min at 4°C. Finally, the supernatant fluid was removed and evaporated to dryness under a stream of nitrogen at 35°C. The dried residue was redissolved by 100 μL 50% methanol aqueous solution. And the supernatant prepared above was filtered through 0.22 μm membranes transferred to vials by the UHPLC-MS/MS system for data analysis.
12 adult male SD rats (weighing 250∼300 g) were used in pharmacokinetics experiments and randomly assigned to two groups: R-FF group and H-FF group. Before being administered R-FF or H-FF extract, all the rats fasted but with free access to water for 12 h. The R-FF or H-FF extract was orally administered to the rats (140 g/kg body weight). Aliquots of 0.3 ml blood samples were collected in 1.5 ml heparin lithium-anticoagulant tubes at (0.083, 0.166, 0.333, 0.5, 1, 2, 4, 6, 8, 12, 24, 36, and 48 h) via the postorbital venous plexus veins from each rat after oral administration. The blood sample was immediately centrifuged at 3500 rpm for 5 min, and the supernatant 100 μL serum was transferred into a new centrifuge tube and stored at −80°C until analysis.

[2] = assay type: in vitro ADME; conditions: rat plasma, IS 100 ng/mL, n = 3
Experimental: Short-term stability was calculated by keeping the QC samples at room temperature for 4 hours. Long-term stability was investigated by storing the same QC samples at −20°C in a refrigerator for 30 days. The freeze and thaw stability was determined by analyzing the same QC samples after 3 consecutive freeze-thaw (−20 to 20°C) cycles. The postpreparative stability was evaluated by keeping the QC samples at autosampler for 24 hours.

Row | Compound | eliminate rate (judged from t1/2 and MRT values) [1] | double peak phenomena in serum concentration-time curve [1] | AUC(0-inf) ([1]; oral H-FF extract 140 g/kg) | AUC(0-t) ([1]; oral H-FF extract 140 g/kg) | Cmax ([1]; oral H-FF extract 140 g/kg) | Tmax ([1]; oral H-FF extract 140 g/kg) | half-life ([1]; oral H-FF extract 140 g/kg) | MRT last ([1]; oral H-FF extract 140 g/kg) | AUC(0-inf) ([1]; oral R-FF extract 140 g/kg) | AUC(0-t) ([1]; oral R-FF extract 140 g/kg) | Cmax ([1]; oral R-FF extract 140 g/kg) | Tmax ([1]; oral R-FF extract 140 g/kg) | half-life ([1]; oral R-FF extract 140 g/kg) | MRT last ([1]; oral R-FF extract 140 g/kg) | change of T1/2 in H-FF group compared to R-FF group [1] | change of MRT0–t in H-FF group compared to R-FF group [1] | also measured
1 | O=C(O)/C=C/c1ccc(O)c(O)c1 [Caffeic acid, caffeic acid] | slow eliminate rate | obvious double peak phenomena | 66.8 ± 12.2 µg·h/mL | 24.1 ± 2.06 µg·h/mL | 4550 ± 235 ng/mL | 0.33 h | 78.9 ± 26 h | 12.7 ± 0.38 h | 35.2 ± 9.99 µg·h/mL | 20.2 ± 0.405 µg·h/mL | 4470 ± 311 ng/mL | 0.33 h | 32.3 ± 17.6 h | 14.3 ± 0.25 h |  |  | 
2 | O=C(N[C@H](CO)[C@H](O)c1ccc([N+](=O)[O-])cc1)C(Cl)Cl [Chloramphenicol (IS), chloramphenicol] |  |  |  |  |  |  |  |  |  |  |  |  |  |  |  |  | Freeze-thaw stability (RE%) ([2]; 3 freeze-thaw cycles (−20 to 20°C)): −4.77%; Short-term stability (RE%) ([2]; room temperature 4 hours): 0.74%; Long-term stability (RE%) ([2]; −20°C 30 days): −2.22%
3 | O=C(/C=C/c1ccc(O)c(O)c1)O[C@@H]1C[C@](O)(C(=O)O)C[C@@H](O)[C@H]1O [Chlorogenic acid, chlorogenic acid] | slow eliminate rate |  | 428 ± 41.6 µg·h/mL | 281 ± 10.8 µg·h/mL | 80400 ± 6350 ng/mL | 0.33 h | 32.9 ± 4.87 h | 11.1 ± 0.16 h | 236 ± 75.6 µg·h/mL | 167 ± 21.8 µg·h/mL | 75600 ± 3060 ng/mL | 0.33 h | 33.4 ± 3.36 h | 10.6 ± 0.82 h | a little shorter |  | 
4 | O=C(/C=C/c1ccc(O)c(O)c1)O[C@H]1[C@H](O)C[C@](O)(C(=O)O)C[C@H]1O [Cryptochlorogenic acid, cryptochlorogenic acid] | slow eliminate rate |  | 401 ± 22 µg·h/mL | 351 ± 16.7 µg·h/mL | 97300 ± 1150 ng/mL | 0.33 h | 17.6 ± 1.57 h | 13.2 ± 0.39 h | 242 ± 49.1 µg·h/mL | 170 ± 5.98 µg·h/mL | 67800 ± 3100 ng/mL | 0.33 h | 21.9 ± 9.25 h | 11.2 ± 0.53 h | a little shorter |  | 
5 | COc1cc(/C=C/C(=O)O)ccc1O [Ferulic acid, ferulic acid] | fast eliminate rate | obvious double peak phenomena | 2.25 ± 0.442 µg·h/mL | 1.76 ± 0.224 µg·h/mL | 380 ± 5.89 ng/mL | 0.33 h | 3.31 ± 0.68 h | 3.33 ± 0.11 h | 2.14 ± 0.196 µg·h/mL | 0.853 ± 0.0294 µg·h/mL | 253 ± 25.7 ng/mL | 0.33 h | 5.07 ± 1.87 h | 4.21 ± 0.11 h |  |  | 
6 | O=C(C=Cc1ccc(O)c(O)c1)OC1CC(O)(C(=O)O)CC(O)C1OC(=O)C=Cc1ccc(O)c(O)c1 (stereo not drawn) [Isochlorogenic acid B, isochlorogenic acid B] | slow eliminate rate |  | 455 ± 14.6 µg·h/mL |  | 52300 ± 3010 ng/mL | 0.33 h | 16.8 ± 5.09 h | 15.2 ± 0.19 h | 201 ± 7.21 µg·h/mL | 194 ± 6.58 µg·h/mL | 25200 ± 1590 ng/mL | 0.33 h |  | 10.9 ± 1.04 h |  | increased | t 1/2 ([1]; oral R-FF extract 140 g/kg): 9.68 ± 1.36 h
7 | O=C(C=Cc1ccc(O)c(O)c1)OC1CC(O)(C(=O)O)CC(O)C1OC(=O)C=Cc1ccc(O)c(O)c1 (stereo not drawn) [Isochlorogenic acid C, isochlorogenic acid C] | slow eliminate rate |  |  |  |  |  |  |  |  |  |  |  |  |  |  | increased | C max ([1]; oral H-FF extract 140 g/kg): 28183.80 ± 3739.61 ng/mL; MRT0–t ([1]; oral H-FF extract 140 g/kg): 16.42 ± 0.84 h; T max ([1]; oral H-FF extract 140 g/kg): 0.33 ± 0.00 h; t 1/2 ([1]; oral H-FF extract 140 g/kg): 22.14 ± 9.73 h; C max ([1]; oral R-FF extract 140 g/kg): 12916.78 ± 3117.99 ng/mL; MRT0–t ([1]; oral R-FF extract 140 g/kg): 14.32 ± 1.56 h; T max ([1]; oral R-FF extract 140 g/kg): 0.33 ± 0.00 h; t 1/2 ([1]; oral R-FF extract 140 g/kg): 20.36 ± 5.22 h
8 | O=C(C=Cc1ccc(O)c(O)c1)OC1CC(O)(C(=O)O)CC(O)C1O (stereo not drawn) [Neochlorogenic acid, neochlorogenic acid] | slow eliminate rate | obvious double peak phenomena | 117 ± 15.9 µg·h/mL | 95.7 ± 6.56 µg·h/mL | 24700 ± 3220 ng/mL | 0.33 h | 14.7 ± 3.88 h | 10.9 ± 0.44 h | 87 ± 8.34 µg·h/mL | 56 ± 4.22 µg·h/mL |  | 0.33 h | 30.1 ± 6.85 h | 12.5 ± 1.19 h | a little shorter |  | 
9 | C[C@@H]1O[C@@H](OC[C@H]2O[C@@H](Oc3c(-c4ccc(O)c(O)c4)oc4cc(O)cc(O)c4c3=O)[C@H](O)[C@@H](O)[C@@H]2O)[C@H](O)[C@H](O)[C@H]1O [Rutin, rutin] | slow eliminate rate | obvious double peak phenomena | 105 ± 9.98 µg·h/mL | 64.6 ± 4.91 µg·h/mL | 7040 ± 429 ng/mL | 0.39 ± 0.09 h | 14.3 ± 2.28 h | 22.7 ± 0.82 h | 211 ± 37.9 µg·h/mL | 100 ± 9.13 µg·h/mL | 7430 ± 446 ng/mL | 0.33 h | 30.7 ± 14 h | 18.91 ± 0.17 h |  | increased | 
